Laboratory results published in patent publication US12263248B2, “Compounds and compositions for intracellular delivery of therapeutic agents” (ModernaTX, Inc., priority 2018, dated 2025).
“Also recorded” adds a separate entry of the source.

How the values were obtained:
[1] = system: luciferase (Luc) mRNA; test: Luc expression (total flux) after intramuscular administration; format: in vivo, mice; details: for Total flux, 0.001 mpk Dose / Total flux, 0.01 mpk Dose: 6 hours after intramuscular administration; for Fold increase in Luc expression relative to MC3, Intramuscular (0.001 mpk dose) / Fold increase in Luc expression relative to MC3, Intramuscular (0.01 mpk dose) / Novel lipid/MC3 expression ratio, 6 hr. time point, i.m. Luc: intramuscular; for Novel lipid/MC3 expression ratio, 6 hr. time point, i.m. Luc: relative to MC3 formulation
How it was run: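 Mice given a single intramuscular dose of lipid nanoparticle formulations carrying modified Luc mRNA, alone or with H10 mRNA, at 0.001 or 0.01 mpk total. Luciferase expression recorded as total flux.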

[2] = Apparent (surface) pKa of the LNP formulation (TNS assay); format: physicochemical
How it was run: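 LNP (0.04 mg/mL mRNA) mixed with TNS reagent in 21 buffers spanning about pH 3-12, in triplicate; fluorescence plotted against pH as sigmoidal curve. Apparent pKa taken as […] curve inflection point; validated in 1× PBS and 20 mM Tris w/8% sucrose.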

[3] = Encapsulation efficiency of RNA (QUANT-IT RIBOGREEN RNA assay); format: physicochemical; details: for % Encapsulation: lipid nanoparticle, ±SD within one assay run (Table 37)
How it was run: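 RiboGreen fluorescence (ex ~480, em ~520 nm) compared between intact samples and Triton X-100-lysed samples after 15 min at 37 °C in TE buffer, pH 7.5. Percent free RNA is the blank-corrected intact/disrupted ratio.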

[4] = system: luciferase (Luc) mRNA; test: Luc expression, whole body bioluminescence after intravenous administration to mice; format: in vivo; details: for Fold increase in total body Luc Flux relative to MC3 at 6 h: Table 3A; for Total Flux 3 hours / Total Flux 6 hours / Total Flux 24 hours / luciferase activity relative to MC3 LNP control / Average total flux (6 h, ffluc) / Fold increase in average total flux relative to MC3: mice; for Total Flux 3 hours / Total Flux 6 hours / Total Flux 24 hours: i.v., 0.5 mg/kg, Luc mRNA; for Fold increase in Luc expression relative to MC3, Intravenous (0.5 mpk dose) / luciferase activity relative to MC3 LNP control / Average total flux (6 h, ffluc) / Fold increase in average total flux relative to MC3: intravenous; for luciferase activity relative to MC3 LNP control: 0.5 mg/kg (mRNA dose); for Average total flux (6 h, ffluc) / Fold increase in average total flux relative to MC3: 6 h
How it was run: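 Luc mRNA nanoparticle formulations given intravenously to mice (n=6) at 0.5 mg/kg; whole-body bioluminescence imaged at 3, 6 and 24 h. CD-1 mice received IP D-luciferin (200 μL of 15 mg/mL) 15 min before imaging; total flux quantified by region of interest.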

[5] = lipid nanoparticle, ±SD within one assay run (Table 37)
[6] = lipid:DSPC:Chol:PEG-DMG (50:10:38.5:1.5), hEPO mRNA
[7] = Table 1B, formulated with hEPO mRNA

CCCCCCCCCCCCCCN(CCO)CCCCCCCC(=O)OC(CCCCCCCC)CCCCCCCC [Compound 2, Heptadecan-9-yl 8-((2-hydroxyethyl)(tetradecyl)amino)octanoate]
Total flux, 0.001 mpk Dose ([1]; Luc mRNA and H10 mRNA): 3.55E+06 p/s | Total flux, 0.01 mpk Dose ([1]; Luc mRNA and H10 mRNA): 6.16E+07 p/s | pKa ([2]; Table 1A): 6.73 | EE (%) ([3]; Table 1A): 93.88% | Fold increase in total body Luc Flux relative to MC3 at 6 h ([4]; i.v. administration): 1.31 | Total Flux 3 hours [4]: 1.93E+10 | Total Flux 6 hours [4]: 4.31E+10 | Total Flux 24 hours [4]: 2.43E+09

CCCCCCCCCN(CCO)CCCCCCCC(=O)OC(CCCCCCCC)CCCCCCCC [Compound 3, Heptadecan-9-yl 8-((2-hydroxyethyl)(nonyl)amino)octanoate]
Total flux, 0.001 mpk Dose ([1]; Luc mRNA and H10 mRNA): 3.58E+06 p/s | Total flux, 0.01 mpk Dose ([1]; Luc mRNA and H10 mRNA): 4.95E+07 p/s | Fold increase in Luc expression relative to MC3, Intramuscular (0.001 mpk dose) [1]: 0.51 | Fold increase in Luc expression relative to MC3, Intramuscular (0.01 mpk dose) [1]: 1.13 | pKa ([2]; Table 1A): 6.72 | pKa ([2]; Table 6): 6.72 | EE (%) ([3]; Table 1A): 92.25% | Fold increase in total body Luc Flux relative to MC3 at 6 h ([4]; i.v. administration): 2.24 | Fold increase in Luc expression relative to MC3, Intravenous (0.5 mpk dose) [4]: 2.24 | Total Flux 3 hours [4]: 6.55E+10 | Total Flux 6 hours [4]: 7.37E+10 | Total Flux 24 hours [4]: 4.96E+09

CCCCCCCCC(CCCCCCCC)OC(=O)CCCCCCCN(CCO)CCCCCC [Compound 5, Heptadecan-9-yl 8-(hexyl(2-hydroxyethyl)amino)octanoate]
Total flux, 0.001 mpk Dose ([1]; Luc mRNA and H10 mRNA): 9.84E+05 p/s | Total flux, 0.01 mpk Dose ([1]; Luc mRNA and H10 mRNA): 3.55E+06 p/s | pKa ([2]; Table 1A): 6.84 | EE (%) ([3]; Table 1A): 77.07% | Fold increase in total body Luc Flux relative to MC3 at 6 h ([4]; i.v. administration): 0.005 | Total Flux 3 hours [4]: 2.77E+08 | Total Flux 6 hours [4]: 1.76E+08 | Total Flux 24 hours [4]: 2.40E+07

CCCCC/C=C\C/C=C\CCCCCCCCN(CCO)CCCCCCCC(=O)OC(CCCCCCCC)CCCCCCCC [Compound 6, Heptadecan-9-yl 8-((2-hydroxyethyl)((9Z,12Z)-octadeca-9,12-dien-1-yl)amino)octanoate]
pKa ([2]; Table 1A): 6.32 | pKa [2, 5]: 6.32 ± 0.05 | EE (%) ([3]; Table 1A): 97.60% | % Encapsulation [3]: 97.6 ± 1.2% | EE [3, 6]: 97.84% | Fold increase in total body Luc Flux relative to MC3 at 6 h ([4]; i.v. administration): 1.15 | Total Flux 3 hours [4]: 5.38E+09 | Total Flux 6 hours [4]: 7.60E+09 | Total Flux 24 hours [4]: 7.69E+08 | luciferase activity relative to MC3 LNP control [4]: Equivalent expression to MC3 LNPs | Average total flux (6 h, ffluc) [4]: 7.60 × 10^9 | Fold increase in average total flux relative to MC3 [4]: 1.15

CCCCCCCCCN(CCCO)CCCCCCCC(=O)OC(CCCCCCCC)CCCCCCCC [Compound 7, Heptadecan-9-yl 8-((3-hydroxypropyl)(nonyl)amino)octanoate]
Total flux, 0.001 mpk Dose ([1]; Luc mRNA and H10 mRNA): 3.65E+06 p/s | Total flux, 0.01 mpk Dose ([1]; Luc mRNA and H10 mRNA): 7.48E+07 p/s | pKa ([2]; Table 1A): 6.75 | App. pKa ([2]; Table 3F): 6.74 | EE (%) ([3]; Table 1A): 86.10% | Total Flux 3 hours [4]: 4.13E+10 | Total Flux 6 hours [4]: 4.03E+10 | Total Flux 24 hours [4]: 1.68E+09

CCCCCCCCCOC(=O)CCCCCCCN(CCCCCCCC(=O)OC(CCCCCCCC)CCCCCCCC)C[C@H](C)O [Compound 12, Heptadecan-9-yl (S)-8-((2-hydroxypropyl)(8-(nonyloxy)-8-oxooctyl)amino)octanoate]
Total flux, 0.001 mpk Dose ([1]; Luc mRNA and H10 mRNA): 8.02E+04 p/s | Total flux, 0.01 mpk Dose ([1]; Luc mRNA and H10 mRNA): 8.90E+05 p/s | pKa ([2]; Table 1A): 5.99 | EE (%) ([3]; Table 1A): 92.44% | Total Flux 3 hours [4]: 5.14E+09 | Total Flux 6 hours [4]: 1.27E+10 | Total Flux 24 hours [4]: 2.45E+08

CCCCCCCCCOC(=O)CCCCCCCN(CCO)CCCCCCCC(=O)OC(CCCCCCCC)CCCCCCCC [Compound 18, Heptadecan-9-yl 8-((2-hydroxyethyl)(8-(nonyloxy)-8-oxooctyl)amino)octanoate]
Total flux, 0.01 mpk Dose ([1]; Luc mRNA and H10 mRNA): 8.84E+07 p/s | Fold increase in Luc expression relative to MC3, Intramuscular (0.01 mpk dose) [1]: 2.01 | pKa ([2]; Table 1A): 6.56 | pKa ([2]; Table 6): 6.56 | pKa [2, 5]: 6.56 ± 0.13 | EE (%) ([3]; Table 1A): 95.9% | EE (%) [3, 7]: 96.95% | % EE ([3]; Table 1D, for subcutaneous administration, # formulated with hEPO mRNA): 96.2% | % Encapsulation [3]: 97.5 ± 0.2% | EE [3, 6]: 97.34% | EE ([3]; nanoparticle composition with hEPO mRNA (Table 30)): 85.56% | EE ([3]; nanoparticle composition with mRNA encoding anti-HA antibody (Table 33)): 79.3% | % EE ([3]; nanoparticle of rat tolerability study (Table 43)): 91% | Fold increase in total body Luc Flux relative to MC3 at 6 h ([4]; i.v. administration): 3.22 | fold increase in Luc expression over MC3 formulations ([4]; intravenous administration, in words): highest fold increase | Fold increase in Luc expression relative to MC3, Intravenous (0.5 mpk dose) [4]: 3.23 | Total Flux 3 hours [4]: 1.71E+10 | Total Flux 6 hours [4]: 2.13E+10 | Total Flux 24 hours [4]: 2.51E+09 | luciferase activity relative to MC3 LNP control [4]: 3 fold | Average total flux (6 h, ffluc) [4]: 2.13 × 10^10 | Fold increase in average total flux relative to MC3 [4]: 3.23

CCCCCCCCCOC(=O)CCCCCCCN(CCCO)CCCCCCCC(=O)OC(CCCCCCCC)CCCCCCCC [Compound 19, Heptadecan-9-yl 8-((3-hydroxypropyl)(8-(nonyloxy)-8-oxooctyl)amino) octanoate]
Total flux, 0.001 mpk Dose ([1]; Luc mRNA and H10 mRNA): 3.28E+06 p/s | Total flux, 0.01 mpk Dose ([1]; Luc mRNA and H10 mRNA): 2.96E+07 p/s | Novel lipid/MC3 expression ratio, 6 hr. time point, i.m. Luc [1]: 3.68 | pKa ([2]; Table 1A): 6.78 | EE (%) ([3]; Table 1A): 97.21% | % EE ([3]; Table 1E, compositions for subcutaneous administration): 93% | Fold increase in total body Luc Flux relative to MC3 at 6 h ([4]; i.v. administration): 0.96 | Total Flux 3 hours [4]: 3.38E+10 | Total Flux 6 hours [4]: 3.56E+09 | Total Flux 24 hours [4]: 4.68E+08

CCCCCCCCCOC(=O)CCCCCCCN(CCCCO)CCCCCCCC(=O)OC(CCCCCCCC)CCCCCCCC [Compound 20, Heptadecan-9-yl 8-((4-hydroxybutyl)(8-(nonyloxy)-8-oxooctyl)amino) octanoate]
Total flux, 0.001 mpk Dose ([1]; Luc mRNA and H10 mRNA): 2.59E+07 p/s | Luc expression upon intramuscular administration ([1]; Luc mRNA and H10 mRNA, doses of 0.001 and 0.01 mpk, in words): highest expression at both dose levels; also recorded: equivalent expression to the high dose of MC3 | fold increase in Luc expression over MC3 formulations ([1]; intramuscular administration, in words): highest fold increase | Fold increase in Luc expression relative to MC3, Intramuscular (0.001 mpk dose) [1]: 3.70 | Fold increase in Luc expression relative to MC3, Intramuscular (0.01 mpk dose) [1]: 2.21 | Novel lipid/MC3 expression ratio, 6 hr. time point, i.m. Luc [1]: 2.21 | pKa ([2]; Table 1A): 6.87 | pKa ([2]; Table 6): 6.87 | EE (%) ([3]; Table 1A): 96.72% | % EE ([3]; Table 1C, compositions for subcutaneous administration): 91.6% | Fold increase in total body Luc Flux relative to MC3 at 6 h ([4]; i.v. administration): 0.80 | Fold increase in Luc expression relative to MC3, Intravenous (0.5 mpk dose) [4]: 0.80 | Total Flux 3 hours [4]: 1.71E+10 | Total Flux 6 hours [4]: 2.48E+10 | Total Flux 24 hours [4]: 5.40E+08

CCCCC/C=C\C/C=C\CCCCCCCCN(CCO)CCCCCCCC(=O)OCCCCCCCCC [Compound 136, Nonyl 8-((2-hydroxyethyl)((9Z,12Z)-octadeca-9,12-dien-1-yl)amino)octanoate]
pKa ([2]; Table 1A): 6.95 | pKa [2, 5]: 6.95 ± 0.13 | EE (%) ([3]; Table 1A): 90.9% | % Encapsulation [3]: 90.9 ± 0.9% | Total Flux 3 hours [4]: 7.21E+08 | Total Flux 6 hours [4]: 7.33E+08 | Total Flux 24 hours [4]: 3.39E+07

CCCCCCCCCOC(=O)CCCCCCCN(CCO)CCCCCCCCCC(=O)OC(CCCCCC)CCCCCC [Compound 147, Tridecan-7-yl 10-((2-hydroxyethyl)(8-(nonyloxy)-8-oxooctyl)amino)decanoate]
pKa ([2]; Table 1A): 6.66 | EE (%) ([3]; Table 1A): 88.31% | EE (%) [3, 7]: 91.0% | 6 h Lipid/MC3 Avg. Luc Expression ([4]; Table 3C, i.v. administration): 6.68 | Fold increase AUC Lipid/MC3 ([4]; Table 3C, i.v. administration): 6.83 | AUC (h * p/s) ([4]; Table 3C, i.v. administration, Luc): 5.63E+11 h * p/s | Total Flux 3 hours [4]: 3.24E+10 | Total Flux 6 hours [4]: 4.87E+10 | Total Flux 24 hours [4]: 3.32E+08
